Test results taken from US11638764B2, “Theranostic capture agents, compositions, and methods of using and making” (Indi Molecular, Inc., priority 2018, dated 2023).
pEC50: −log10 of the molar value. Bridge positions count the residues as written; N and C are the ends. Square brackets hold non-standard residues; d marks the D form. Triazole bridges read from a SMILES are 1,4-linked. Ends that are not written are not given here. Peptide text beside a SMILES is read from it. Lys(N3) = [N-]=[N+]=NCCCC[C@H](N)C(=O)O; Pra = C#CC[C@H](N)C(=O)O

Legend:
recombinant PSMA = recombinant PSMA (Homo sapiens, UniProt Q04609); experiment: ELISA against recombinant PSMA protein; format: binding
Text: (§1) Hits resulting from the epitope 2 screen were also profiled by ELISA and flow.
(§2) Hits resulting from the epitope 3 screen were scaled up and subjected to ELISA and flow experiments.
(§3) Hits resulting from the epitope 4 screen were also profiled in ELISA and flow cytometry.
(§4) To increase the throughput of the screening step, three epitopes were mixed and screened against the pre-cleared library. PSMA epitopes 2C, 6, and 7 were mixed and picked by either an ImmPACT Vector Red or BCIP/NBT dye (FIG. 11). The ImmPACT Vector Red screen identified the hit peptide ehtye (SEQ ID NO:22). […] Further epitope selectivity can be deconvoluted via a single epitope orientation assay.

LNCaP cells (PSMA+) = experiment: Flow cytometry binding to PSMA+ cells; format: cell-based
Text: as §1, §2, §3, §4

[1] = test system: LNCaP cells (a PSMA+ cell line); experiment: LNCaP cell adherence to hit beads; format: cell-based; settings: on-bead peptide
full length PSMA protein = target: T1, full length PSMA protein (Homo sapiens, UniProt Q04609); experiment: Bead screen with 50 nM full length PSMA protein; format: binding; settings: beads that did not bind LNCaP cells
T1 construct: were incubated with 50 nM full length PSMA protein
Text: Some beads were lost during this screen. Most beads turned purple. […] These will be evaluated further by calculating their binding affinities by docking against the screened epitopes 2C, 6, and 7. Clustering analysis was used to identify some interesting sequences. Sequences found in the periphery (pkvrd (SEQ ID NO:27), frvkd (SEQ ID NO:28), dyksk (SEQ ID NO:32), Grkpf (SEQ ID NO:35), kwndd (SEQ ID NO:36), tkGne (SEQ ID NO:39), kvetd (SEQ ID NO:41), neGfd (SEQ ID NO:42), ekfld (SEQ ID NO:43), dkkaw (SEQ ID NO:44), veyGn (SEQ ID NO:45)) are generally preferred because they are more interesting chemically.

PC3 (PSMA−) cells = experiment: Flow cytometry binding to PSMA- cells; format: cell-based
Text: as §1, §2, §4

[2] = target: T2, His-PSMA (Sino Biological) (Homo sapiens, UniProt Q04609); experiment: ELISA, PSMA immobilized via His-tag, PCC titrated in solution; format: binding; settings: biotin-PEG10-PEG10-peptide ligands
T2 construct: purchased Sino Biological
Experimental: (§5) Epitope 5 hits were tested for binding to PSMA by ELISA (PSMA immobilized; PCC titrated in solution). Two immobilization strategies were employed: a His-tag and Myc-Flag tag (His-PSMA (Sino Biological) and PSMA-Myc-Flag (Origene)).

PSMA-Myc-Flag (Origene) = target: T3, PSMA-Myc-Flag (Origene) (Homo sapiens, UniProt Q04609); experiment: ELISA, PSMA immobilized via Myc-Flag tag, PCC titrated in solution; format: binding; settings: biotin-PEG10-PEG10-peptide ligands
T3 construct: purchased Origene
Experimental: as §5

CD8 = experiment: ELISA selectivity over an unrelated protein; format: binding

Sequence of recombinant PSMA (Q04609 whole entry): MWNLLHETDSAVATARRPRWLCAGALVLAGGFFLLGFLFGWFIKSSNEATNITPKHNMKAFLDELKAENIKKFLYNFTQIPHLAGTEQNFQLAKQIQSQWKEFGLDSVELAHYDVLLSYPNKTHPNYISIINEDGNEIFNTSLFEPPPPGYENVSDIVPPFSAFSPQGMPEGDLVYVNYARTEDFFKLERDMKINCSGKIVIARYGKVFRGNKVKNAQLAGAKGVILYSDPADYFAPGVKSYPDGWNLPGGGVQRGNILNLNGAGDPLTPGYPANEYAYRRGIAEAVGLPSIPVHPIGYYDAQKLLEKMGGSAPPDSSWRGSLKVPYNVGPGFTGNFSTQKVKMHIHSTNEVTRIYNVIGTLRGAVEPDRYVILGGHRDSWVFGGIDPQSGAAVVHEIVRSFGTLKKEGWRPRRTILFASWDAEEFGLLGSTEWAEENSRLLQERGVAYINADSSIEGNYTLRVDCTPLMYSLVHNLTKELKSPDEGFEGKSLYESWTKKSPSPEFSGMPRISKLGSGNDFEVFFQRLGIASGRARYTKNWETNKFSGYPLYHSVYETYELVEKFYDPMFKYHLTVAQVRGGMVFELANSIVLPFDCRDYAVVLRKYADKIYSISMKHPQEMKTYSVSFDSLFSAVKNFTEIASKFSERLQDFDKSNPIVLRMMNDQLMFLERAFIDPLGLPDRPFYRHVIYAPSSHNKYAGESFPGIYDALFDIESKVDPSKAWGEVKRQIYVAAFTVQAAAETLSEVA
T2 sequence (Q04609 whole entry): as above
T3 sequence (Q04609 whole entry): as above
T1 sequence (Q04609 whole entry): as above

Row | Compound | binding to recombinant PSMA by ELISA (recombinant PSMA) | binding to LNCaP (PSMA+) cells by flow (LNCaP cells (PSMA+)) | adherence of LNCaP cells to the bead [1] | binding to PC3 / PSMA− cells by flow (PC3 (PSMA−) cells) | other results
1 | kwtsd: LNCaP-adherent bead hit2 (Table 8) ([dK][dW][dT][dS][dD]) | no binding | no binding | good adherence | – | –
2 | dntwp: dark purple bead in full length PSMA screen ([dD][dN][dT][dW][dP]) | no binding | no binding | – | – | bead colour after incubation with PSMA protein (full length PSMA protein): darker than the others
3 | ert: epitope 2A/2B hit1 (Table 3) ([dE]-[dR]-[dT]) | – | did not show binding | – | did not show binding | –
4 | dwpve: LNCaP-adherent bead hit1 (Table 8) ([dD][dW][dP][dV][dE]) | no binding | no binding | good adherence | – | –
5 | CC(=O)N[C@H]1Cc2cn(nn2)CCCC[C@@H](C(N)=O)NC(=O)[C@@H](Cc2c[nH]c3ccccc23)NC(=O)[C@@H](Cc2c[nH]c3ccccc23)NC(=O)[C@@H](CCC(=O)O)NC(=O)[C@@H](CCCNC(=N)N)NC(=O)[C@@H](Cc2c[nH]cn2)NC1=O [hreww] (Ac-[Pra][dH][dR][dE][dW][dW][Lys(N3)]-NH2; triazole 1-7; N-terminus and C-terminus assumed) | – | – | – | – | binding to PSMA by ELISA [2]: nanomolar binding affinity; binding to PSMA by ELISA (PSMA-Myc-Flag (Origene)): nanomolar binding affinity
6 | CC(=O)N[C@H]1Cc2cn(nn2)CCCC[C@@H](C(N)=O)NC(=O)[C@@H](Cc2c[nH]cn2)NC(=O)[C@@H](Cc2c[nH]cn2)NC(=O)[C@@H](CCCCN)NC(=O)[C@@H](Cc2ccccc2)NC(=O)[C@@H](CC(C)C)NC1=O [lfkhh] (Ac-[Pra][dL][dF][dK][dH][dH][Lys(N3)]-NH2; triazole 1-7; N-terminus and C-terminus assumed) | – | bound equally | – | bound equally | –
7 | ert dimer: dimer of epitope 2 hit ert, PEG10-ert-Tz-ert ([dE]-[dR]-[dT]; also: dimer: PEG10-ert-Tz-ert) | – | showed binding | – | showed binding | pEC50 (recombinant PSMA; read-out: EC50 of binding to recombinant PSMA by ELISA): 6.11
8 | svand: LNCaP-adherent bead hit3 (Table 8) ([dS][dV][dA][dN][dD]) | Binding to recombinant PSMA protein was achieved | modest | good adherence | same binding to both PSMA+ and PSMA− cells | selectivity for PSMA over an unrelated protein (CD8) (CD8): good selectivity
9 | ehtye: hit of ImmPACT Vector Red screen against mixed epitopes 2C, 6, 7 ([dE][dH][dT][dY][dE]) | Binding to recombinant PSMA protein was achieved | – | – | increased binding to PSMA− cells | selectivity for PSMA over an unrelated protein (CD8) (CD8): good selectivity
